Laboratory results from patent US11298363B2, “Triazolobenzazepines as vasopressin V1a receptor antagonists” (RICHTER GEDEON NYRT., priority 2017, dated 2022).

Columns and labels:
[1] = target: T1, human vasopressin V1a receptor (Homo sapiens, UniProt P37288); assay: Functional assay on human vasopressin V1a receptor expressing cell line (intracellular Ca2+ fluorescence); type: cell-based; conditions: 1321N1 cells, (Arg8)-vasopressin at EC80; read-out: IC50 (nM) on hV1a cell line
[2] = target: T1, human vasopressin V1a receptor; assay: Human vasopressin V1a receptor binding assay; conditions: 1321N1 cell membranes, [3H]vasopressin; read-out: Ki (nM) on hV1a cell line
Outline: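 Ki values come from IC50 via Cheng-Prusoff (KD from prior Scatchard), averaged over at least two independent runs. Human V1a membranes were incubated with radioligand 60 minutes at 27° C., bound ligand collected by filtration; (Arg^8)-vasopressin at 1.2×10^−6 M defined non-specific binding.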

T1 sequence (P37288 whole entry): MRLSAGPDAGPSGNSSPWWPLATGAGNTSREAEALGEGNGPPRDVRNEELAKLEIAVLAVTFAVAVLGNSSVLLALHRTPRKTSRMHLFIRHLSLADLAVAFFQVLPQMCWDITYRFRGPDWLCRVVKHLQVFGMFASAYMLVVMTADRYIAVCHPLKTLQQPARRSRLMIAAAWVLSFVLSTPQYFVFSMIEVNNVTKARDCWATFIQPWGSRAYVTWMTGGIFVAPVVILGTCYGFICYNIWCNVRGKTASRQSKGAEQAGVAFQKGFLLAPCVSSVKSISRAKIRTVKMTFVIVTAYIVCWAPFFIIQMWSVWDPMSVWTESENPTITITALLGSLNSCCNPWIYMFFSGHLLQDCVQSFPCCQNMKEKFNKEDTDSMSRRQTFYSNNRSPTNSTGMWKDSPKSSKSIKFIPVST

IC50 [1]	Ki [2]	SMILES
0.7 nM	0.04 nM	Clc1ccc2c(c1)CC1(Cc3nnc(N4CCC5(CC4)OCc4ccccc45)n3-2)OCCO1 [Example 155, 8′-chloro-1′-(1′H,3H-spiro[2-benzofuran-1,4′-piperidin]-1′-yl)-4′H,6′H-spiro[1,3-dioxolane-2,5′-[1,2,4]triazolo[4,3-a][1]benzazepine]]
94 nM	5 nM	CC(C)NC1Cc2ccccc2-n2c(nnc2[C@H]2CC[C@H](Oc3ccccn3)CC2)C1 (stereo partly drawn) [Example 150, N-(propan-2-yl)-1-[trans-4-(pyridin-2-yloxy)cyclohexyl]-5,6-dihydro-4H-[1,2,4]triazolo[4,3-a][1]benzazepin-5-amine]
54 nM	2.9 nM	CC(C)NC1Cc2cc(Cl)ccc2-n2c(nnc2C2CCN(c3ccccn3)CC2)C1 (stereo not drawn) [Example 135, 8-chloro-N-(propan-2-yl)-1-[l-(pyridin-2-yl)piperidin-4-yl]-5,6-dihydro-4H-[1,2,4]triazolo[4,3-a][1]benzazepin-5-amine]
78 nM	3.2 nM	CC(C)NC1Cc2cc(F)ccc2-n2c(nnc2[C@H]2CC[C@H](Oc3ccccn3)CC2)C1 (stereo partly drawn) [Example 146, 8-fluoro-N-(propan-2-yl)-1-[trans-4-(pyridin-2-yloxy)cyclohexyl]-5,6-dihydro-4H-[1,2,4]triazolo[4,3-a][1]benzazepin-5-amine]
15 nM	0.8 nM	Fc1ccc2c(c1)CC1(Cc3nnc([C@H]4CC[C@H](C(F)(F)F)CC4)n3-2)OCCO1 [Example 149, 8′-fluoro-1′-[trans-4-(trifluoromethyl)cyclohexyl]-4′H,6′H-spiro[1,3-dioxolane-2,5′-[1,2,4]triazolo[4,3-a][1]benzazepine]]
1.8 nM	0.1 nM	Clc1ccc2c(c1)CC1(Cc3nnc([C@H]4CC[C@H](Oc5ccccn5)CC4)n3-2)OCCCCO1 [Example 106, 8′-chloro-1′-[trans-4-(pyridin-2-yloxy)cyclohexyl]-4°,6′-spiro[1,3-dioxepane-2,5′-[1,2,4]triazolo[4,3-a][1]benzazepine]]
20 nM	2.7 nM	COC1Cc2cc(C(F)(F)F)ccc2-n2c(nnc2[C@H]2CC[C@H](Oc3ccccn3)CC2)C1 (stereo partly drawn) [Example 50, 5-methoxy-1-[trans-4-(pyridin-2-yloxy)cyclohexyl]-8-(trifluoromethyl)-5,6-dihydro-4H-[1,2,4]triazolo[4,3-a][1]benzazepine]
2.2 nM	0.1 nM	O/N=C1/Cc2cc(Cl)ccc2-n2c(nnc2[C@H]2CC[C@H](Oc3ccccn3)CC2)C1 [Example 208, 8-chloro-N-hydroxy-1-[trans-4-(pyridin-2-yloxy)cyclohexyl]-4H-[1,2,4]triazolo[4,3-a][1]benzazepin-5(6H)-imine]
17 nM	3.8 nM	CC(C)(C)OC(=O)NC1Cc2cc(Cl)ccc2-n2c(nnc2[C@H]2CC[C@H](Oc3ccccn3)CC2)C1 (stereo partly drawn) [Example 5, Tert-butyl {8-chloro-1-[trans-4-(pyridin-2-yloxy)cyclohexyl]-5,6-dihydro-4H-[1,2,4]triazolo[4,3-a][1]benzazepine-5-yl}carbamate]
8.9 nM	0.7 nM	CC(C)[C@@H](N)C(=O)N[C@@H]1Cc2cc(Cl)ccc2-n2c(nnc2[C@H]2CC[C@H](Oc3ccccn3)CC2)C1 [Example 141, N-{(5R)-8-chloro-1-[trans-4-(pyridin-2-yloxy)cyclohexyl]-5,6-dihydro-4H-[1,2,4]triazolo[4,3-a][1]benzazepin-5-yl}-D-valinamide]
9.4 nM	1 nM	CN(C)C1Cc2cc(F)ccc2-n2c(nnc2[C@H]2CC[C@H](Oc3ccccn3)CC2)C1 (stereo partly drawn) [Example 147, 8-fluoro-N,N-dimethyl-1-[trans-4-(pyridin-2-yloxy)cyclohexyl]-5,6-dihydro-4H-[1,2,4]triazolo[4,3-a][1]benzazepin-5-amine]
20 nM	0.5 nM	CC(C)N1CC[C@]2(CC[C@H](c3nnc4n3-c3ccc(Cl)cc3CC3(C4)OCCO3)CC2)C1=O [Example 129, (5s,8s)-8-(8′-chloro-4′H,6′H-spiro[1,3-dioxolane-2,5-[1,2,4]triazolo[4,3-a][1]benzazepin]-1′-yl)-2-(propan-2-yl)-2-azaspiro[4.5]decan-1-one]
156 nM	5 nM	CC(C)(C)OC(=O)NC1Cc2cc(F)ccc2-n2c(nnc2[C@H]2CC[C@H](Oc3ccccn3)CC2)C1 (stereo partly drawn) [Example 143, Tert-butyl {8-fluoro-1-[trans-4-(pyridin-2-yloxy)cyclohexyl]-5,6-dihydro-4H-[1,2,4]triazolo[4,3-a][1]benzazepin-5-yl}carbamate]
2.6 nM	0.4 nM	Clc1ccc2c(c1)C[C@@H](N1CCOCC1)Cc1nnc([C@H]3CC[C@H](Oc4ccccn4)CC3)n1-2 [Example 167, (5R)-8-chloro-5-(morpholin-4-yl)-1-[trans-4-(pyridin-2-yloxy)cyclohexyl]-5,6-dihydro-4H-[1,2,4]triazolo[4,3-a][1]benzazepine]
737 nM	67 nM	CCC(C)C(=O)N[C@H]1Cc2cc(Cl)ccc2-n2c(nnc2[C@H]2CC[C@H](Oc3ccccn3)CC2)C1 (stereo partly shown) [Example 152]
72 nM	11.4 nM	N#Cc1ccc2c(c1)CC1(Cc3nnc([C@H]4CC[C@H](C(F)(F)F)CC4)n3-2)OCCO1 [Example 84, 1′-[trans-4-(trifluoromethyl)cyclohexyl]-4′H,6′H-spiro[1,3-dioxolane-2,5′-[1,2,4]triazolo[4,3-a][1]benzazepine]-8′-carbonitrile]
2.9 nM	0.3 nM	COC1Cc2cc(Cl)ccc2-n2c(nnc2N2CCC3(CC2)OCc2ccccc23)C1 (stereo not shown) [Example 191, 8-chloro-5-methoxy-1-(1′H,3H-spiro[2-benzofuran-1,4′-piperidin]-1′-yl)-5,6-dihydro-4H-[1,2,4]triazolo[4,3-a][1]benzazepine]
22 nM	0.3 nM	CO[C@]1(C(F)(F)F)CC[C@@H](c2nnc3n2-c2ccc(Cl)cc2CC2(C3)OCCO2)CC1 [Example 235, 8′-chloro-1′-[trans-4-methoxy-4-(trifluoromethyl)cyclohexyl]-4′H,6′H-spiro[1,3-dioxolane-2,5′-[1,2,4]triazolo[4,3-a][1]benzazepine]]
2.6 nM	0.4 nM	O=C(N[C@@H]1Cc2cc(Cl)ccc2-n2c(nnc2[C@H]2CC[C@H](Oc3ccccn3)CC2)C1)C1CC(F)(F)C1 [Example 220, N-{(5R)-8-chloro-1-[trans-4-(pyridin-2-yloxy)cyclohexyl]-5,6-dihydro-4H-[1,2,4]triazolo[4,3-a][1]benzazepin-5-yl}-3,3-difluorocyclobutanecarboxamide]
225 nM	14.3 nM	CC(C)(C)OC(=O)NC1Cc2ccccc2-n2c(nnc2[C@H]2CC[C@H](Oc3ccccn3)CC2)C1 (stereo partly drawn) [Example 142, Tert-butyl {1-[trans-4-(pyridin-2-yloxy)cyclohexyl]-5,6-dihydro-4H-[1,2,4]triazolo[4,3-a][1]benzazepin-5-yl}carbamate]
2.3 nM	0.6 nM	CN(C)[C@H]1Cc2cc(Cl)ccc2-n2c(nnc2[C@H]2CC[C@H](Oc3ccccn3)CC2)C1 [Example 67]
1 nM	0.4 nM	COCCOC1Cc2cc(Cl)ccc2-n2c(nnc2[C@H]2CC[C@H](Oc3ccccn3)CC2)C1 (stereo partly drawn) [Example 202, 8-chloro-5-(2-methoxyethoxy)-1-[trans-4-(pyridin-2-yloxy)cyclohexyl]-5,6-dihydro-4H-[1,2,4]triazolo[4,3-a][1]benzazepine]
2.5 nM	0.3 nM	CO[C@@H]1Cc2cc(Cl)ccc2-n2c(nnc2[C@H]2CC[C@H](C(F)(F)F)CC2)C1 (single isomer, unassigned) [Example 132]
2.8 nM	0.4 nM	CCC[C@]1(OC)CC[C@@H](c2nnc3n2-c2ccc(Cl)cc2CC2(C3)OCCO2)CC1 [Example 243, 8′-chloro-1′-(cis-4-methoxy-4-propylcyclohexyl)-4′H,6′H-spiro[1,3-dioxolane-2,5-[1,2,4]triazolo[4,3-a][1]benzazepine]]
15 nM	1.4 nM	FC1(F)CCC(NC2Cc3cc(Cl)ccc3-n3c(nnc3[C@H]3CC[C@H](Oc4ccccn4)CC3)C2)CC1 (stereo partly drawn) [Example 30, 8-chloro-N-(4,4-difluorocyclohexyl)-1-[trans-4-(pyridin-2-yloxy)cyclohexyl]-5,6-dihydro-4H-[1,2,4]triazolo[4,3-a][1]benzazepine-5-amine]
307 nM	20.5 nM	CN(C)CCC(=O)N[C@H]1Cc2cc(Cl)ccc2-n2c(nnc2[C@H]2CC[C@H](Oc3ccccn3)CC2)C1 [Example 153, N-{(5S)-8-chloro-1-[trans-4-(pyridin-2-yloxy)cyclohexyl]-5,6-dihydro-4H-[1,2,4]triazolo[4,3-a][1]benzazepin-5-yl}-N^3,N^3-dimethyl-β-alaninamide]
47 nM	12.7 nM	NC1Cc2cc(F)ccc2-n2c(nnc2[C@H]2CC[C@H](Oc3ccccn3)CC2)C1 (stereo partly drawn) [Example 145, 8-fluoro-1-[trans-4-(pyridin-2-yloxy)cyclohexyl]-5,6-dihydro-4H-[1,2,4]triazolo[4,3-a][1]benzazepin-5-amine]
169 nM	6.2 nM	COC1Cc2cc(Cl)ccc2-n2c(nnc2[C@H]2CC[C@H](C(=O)N3CCN(C)CC3)CC2)C1 (stereo partly drawn) [Example 166, [Trans-4-(8-chloro-5-methoxy-5,6-dihydro-4H-[1,2,4]triazolo[4,3-a][1]benzazepin-1-yl)cyclohexyl](4-methylpiperazin-1-yl)methanone]
12 nM	2.2 nM	COC(=O)[C@H]1CC[C@H](c2nnc3n2-c2ccc(Br)cc2CC(=O)C3)CC1 [Example 86, methyl trans-4-(8-bromo-5-oxo-5,6-dihydro-4H-[1,2,4]triazolo[4,3-a][1]benzazepin-1-yl)cyclohexane carboxylate]
